Patent publication EP0039037A1, “Pyrimidylthio-ureas, medicines containing them and their use” (Beiersdorf Aktiengesellschaft, priority 1980, dated 1981)

Key:
hyperlipidämische Mäuse = test: Lipid-lowering effect in hyperlipidaemic mice (method analogous to Turner, Screening Methods in Pharmacology, and Garattini et al.); type: in vivo
Experimental: Die lipidsenkende Wirkung von N. (4,6-Dimethoxy-5-pyrimidyl)-thioharnstoff wurde an hyperliprdämischen Mausen analog einer Untersuchungsmethode, wie in "Screening Methods in Pharmacology", Robert A. Turner, 1965, Academic Press, New York and London, und Garattini et al, Arzneimittelforschung 9, 206 (1959), angegeben, untersucht. Die Verbindung wurde in einer Menge von 10 mg/kg peroral verabreicht. Es wurde eine Senkung des Cholesterinspiegels von 25 % und eine Senkung der Triglyceride von 27% erzielt.
(§1) Es wurde die lipid- und blutdrucksenkende Wirkung von N-(2,4-DimethoxY-5-pyrimidyl)-thioharnstoff untersucht. Als Yersuchsziere. wurden hyperlipidämische Mäuse und spontan hypertensive Ratten verwendet.
Bei den Mäusen wurde eine Verabreichungsdosis von 100 mg/ kg peroral verwendet, wobei eine Senkung des Cholesterinspiegels von 38 % und eine Senkung der Triglyceride von 49 % erreicht wurde.

[1] = tested on: spontan hypertensive Ratten; test: Blood-pressure-lowering effect in spontaneously hypertensive rats; type: in vivo; conditions: 30 mg/kg peroral
Experimental: as §1
Bei den Ratten wurde eine Dosis von 30 mg/kg peroral verabreicht, wobei eine Blutdrucksenkung von 30 % erzielt wurde.
Es wurde die blutdrucksenkende Wirkung von N-(4,6-Dimethoxy-2-methyl-5-pyrimidyl)-thioharnstoff bei spontan hypertensiven Ratten untersucht. Den Ratten wurde die Verbindung in einer Dosis von 30 mg/kg peroral verabreicht. Damit wurde eine Blutdrucksenkung von 30 % erzielt.

For COc1ncc(NC(N)=S)c(OC)n1 [N-(2,4-Dimethoxy-5-pyrimidyl)-thioharnstoff], the “Senkung der Triglyceride” value (hyperlipidämische Mäuse; 100 mg/kg peroral) was 49%, the “Senkung des Cholesterinspiegels” value (hyperlipidämische Mäuse; 100 mg/kg peroral) was 38% and the Blutdrucksenkung [1] was 30%.

Compound COc1nc(C)nc(OC)c1NC(N)=S [N-(4,6-Dimethoxy-2-methyl-5-pyrimidyl)-thioharnstoff] has a Blutdrucksenkung [1] of 30%.

With COc1ncnc(OC)c1NC(N)=S [N-(4,6-Dimethoxy-5-pyrimidyl)-thioharnstoff] the “Senkung der Triglyceride” value (hyperlipidämische Mäuse; 10 mg/kg peroral) was 27% and the “Senkung des Cholesterinspiegels” value (hyperlipidämische Mäuse; 10 mg/kg peroral) was 25%.
